Source: US20260297106A1, “SPIROCYCLIC SUBSTITUTED OXOISOINDOLINYL PIPERIDINE-2,6-DIONE COMPOUND” (Bristol-Myers Squibb Company, priority 2023, published 2026)
Read-outs that look alike come from different tables or passages of the source.

How the values were obtained:
IKZF1 Ikaros = IKZF1 Ikaros (Homo sapiens, UniProt Q13422+Q96SW2); test: Human Regulatory T Cell Degradation Assay (IKZF1 Ikaros); type: cell-based; parameters: Cryopreserved healthy donor human peripheral blood mononuclear cells; endogenous in cells; host or cells: primary human PBMC, CD8+ T cells read by flow cytometry; settings: human regulatory T cells, 20 hours, 100% = no detectable protein remaining, read-out: IKZF1 Ikaros max % deg. observed
IKZF1 Ikaros, sequence (Q13422 whole entry): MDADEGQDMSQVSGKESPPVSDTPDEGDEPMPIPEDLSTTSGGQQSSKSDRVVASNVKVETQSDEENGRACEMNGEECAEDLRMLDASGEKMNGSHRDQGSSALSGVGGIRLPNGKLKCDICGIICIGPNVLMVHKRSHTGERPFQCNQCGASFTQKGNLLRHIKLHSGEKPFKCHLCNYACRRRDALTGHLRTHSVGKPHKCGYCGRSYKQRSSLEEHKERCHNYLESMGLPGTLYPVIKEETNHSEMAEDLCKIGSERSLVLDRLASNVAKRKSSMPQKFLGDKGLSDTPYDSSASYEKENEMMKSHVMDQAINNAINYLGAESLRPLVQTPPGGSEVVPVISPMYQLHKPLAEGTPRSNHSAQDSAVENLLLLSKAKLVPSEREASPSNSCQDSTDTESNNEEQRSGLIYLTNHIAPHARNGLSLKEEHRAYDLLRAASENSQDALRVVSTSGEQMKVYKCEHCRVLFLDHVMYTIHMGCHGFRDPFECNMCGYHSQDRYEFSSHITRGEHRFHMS
IKZF1 Ikaros, sequence (Q96SW2 whole entry): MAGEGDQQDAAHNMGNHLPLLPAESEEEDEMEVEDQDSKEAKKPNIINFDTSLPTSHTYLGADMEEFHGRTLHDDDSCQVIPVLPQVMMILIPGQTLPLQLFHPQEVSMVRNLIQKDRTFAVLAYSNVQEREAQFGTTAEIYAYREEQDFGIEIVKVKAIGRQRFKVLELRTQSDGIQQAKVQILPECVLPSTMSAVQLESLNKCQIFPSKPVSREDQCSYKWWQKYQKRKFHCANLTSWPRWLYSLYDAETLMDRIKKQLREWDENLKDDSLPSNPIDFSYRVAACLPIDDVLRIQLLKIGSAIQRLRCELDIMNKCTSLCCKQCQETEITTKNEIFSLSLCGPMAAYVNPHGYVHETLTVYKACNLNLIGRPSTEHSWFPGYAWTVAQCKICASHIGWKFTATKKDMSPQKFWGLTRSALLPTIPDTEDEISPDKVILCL
IKZF1 Ikaros, sequence (Q16531 whole entry partner): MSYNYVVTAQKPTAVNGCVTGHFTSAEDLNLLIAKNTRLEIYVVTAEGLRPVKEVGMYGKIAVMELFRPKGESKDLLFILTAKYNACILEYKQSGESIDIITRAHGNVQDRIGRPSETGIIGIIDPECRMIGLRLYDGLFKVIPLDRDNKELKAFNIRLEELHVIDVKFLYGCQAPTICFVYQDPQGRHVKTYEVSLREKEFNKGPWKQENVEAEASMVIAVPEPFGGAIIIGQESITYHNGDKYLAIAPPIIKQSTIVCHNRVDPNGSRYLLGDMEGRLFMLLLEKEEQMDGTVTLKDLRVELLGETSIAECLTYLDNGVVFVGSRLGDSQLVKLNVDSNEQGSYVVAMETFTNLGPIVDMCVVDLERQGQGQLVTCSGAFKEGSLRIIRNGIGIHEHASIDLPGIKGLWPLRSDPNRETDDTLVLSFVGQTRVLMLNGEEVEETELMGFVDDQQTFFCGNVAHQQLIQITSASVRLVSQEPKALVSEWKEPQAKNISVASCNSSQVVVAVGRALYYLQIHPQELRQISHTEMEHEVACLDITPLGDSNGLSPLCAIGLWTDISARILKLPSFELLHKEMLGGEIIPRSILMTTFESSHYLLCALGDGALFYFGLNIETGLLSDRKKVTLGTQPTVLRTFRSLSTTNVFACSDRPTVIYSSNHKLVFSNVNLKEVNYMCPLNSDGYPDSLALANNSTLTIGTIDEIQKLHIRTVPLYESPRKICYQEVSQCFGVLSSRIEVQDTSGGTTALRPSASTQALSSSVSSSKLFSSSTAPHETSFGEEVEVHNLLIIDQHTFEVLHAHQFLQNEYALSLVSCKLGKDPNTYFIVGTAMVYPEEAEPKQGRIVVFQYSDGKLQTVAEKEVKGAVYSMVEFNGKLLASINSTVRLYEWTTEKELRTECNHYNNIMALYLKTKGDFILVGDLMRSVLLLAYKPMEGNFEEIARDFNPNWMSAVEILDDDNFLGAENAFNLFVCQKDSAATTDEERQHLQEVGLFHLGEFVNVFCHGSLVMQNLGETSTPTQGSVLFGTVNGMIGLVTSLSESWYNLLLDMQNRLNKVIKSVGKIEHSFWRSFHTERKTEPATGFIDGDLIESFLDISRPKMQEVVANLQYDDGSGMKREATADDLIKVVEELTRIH
Procedure: Cryopreserved human regulatory T cells were thawed in RPMI+10% FBS+20 ng/mL IL-2. After being spun at 1200 rpm for 5 mins, the cells were resuspended in RPMI+10% FBS+20 ng/ml and rested at 37° C. with 5% CO2 for 3 hours. The cells were then plated at 40,000 cells/well in 40 μL RPMI+10% FBS+20 ng/ml human IL~2 in a 384 well cell culture plate prior to using acoustic dispensing technology (ECHO 555) for adding compounds of interest. Cell cultures were incubated for 20 hours at 37° C. and 5% CO2. In order to facilitate analysis, cell cultures were spun down at 1200 rpm for 5 minutes and the supernatant was discarded using an EL406 plate washer. After washing three times with 70 μL PBS, cell pellets were resuspended in 50 μL of near IR viability staining solution (Life Technologies, Cat #L34975) and incubated for 30 minutes on ice protected from light. Cells were washed three times with 70 μL PBS+0.5% BSA using an EL406 plate washer. After shaking the plate to dislodge the cell pellet, cells were resuspended in 50 μL of Fixation Buffer (eBioScience FoxP3 buffer set 00-5523-00) for 60 minutes at room temperature. After centrifuging and discarding the supernatant, cells were permeabilized with 50 μL of permeabilization buffer (eBioScience FoxP3 buffer set 00-5523-00) for 10 minutes at room temperature. Following permeabilization, cells were spun down and the supernatant was replaced with 30 μL fluorescently labelled antibodies against the intracellular targets Helios (Helios-APC [BioLegend, Cat #137222, 1:50])]), Aiolos, and Ikaros Ix Permeabilization buffer and staining reactions were incubated for 1 hour at room temperature; protected from light. Subsequently, 30 μL of 1× Permeabilization buffer was added prior to centrifuging the cells and discarding the supernatant. Stained cells were resuspended in 30 μL of flow cytometry staining buffer (PBS+0.5% BSA) and analyzed using an Intellicyt Ique Plus flow cytometer.
Table B-1 lists the maximum observed degradation of the IKZF1 protein and IKZF2 protein as measured in the Human Regulatory Cell T Degradation assay. […]

IKZF3 Aiolos = IKZF3 Aiolos (Homo sapiens, UniProt Q96SW2+Q9UKT9); test: Human CD8+ T Cell Reprogramming Assay (IKZF3 Aiolos); type: cell-based; parameters: Cryopreserved healthy donor human peripheral blood mononuclear cells; endogenous in cells; host or cells: primary human PBMC, CD8+ T cells read by flow cytometry
IKZF3 Aiolos, sequence (Q9UKT9 whole entry): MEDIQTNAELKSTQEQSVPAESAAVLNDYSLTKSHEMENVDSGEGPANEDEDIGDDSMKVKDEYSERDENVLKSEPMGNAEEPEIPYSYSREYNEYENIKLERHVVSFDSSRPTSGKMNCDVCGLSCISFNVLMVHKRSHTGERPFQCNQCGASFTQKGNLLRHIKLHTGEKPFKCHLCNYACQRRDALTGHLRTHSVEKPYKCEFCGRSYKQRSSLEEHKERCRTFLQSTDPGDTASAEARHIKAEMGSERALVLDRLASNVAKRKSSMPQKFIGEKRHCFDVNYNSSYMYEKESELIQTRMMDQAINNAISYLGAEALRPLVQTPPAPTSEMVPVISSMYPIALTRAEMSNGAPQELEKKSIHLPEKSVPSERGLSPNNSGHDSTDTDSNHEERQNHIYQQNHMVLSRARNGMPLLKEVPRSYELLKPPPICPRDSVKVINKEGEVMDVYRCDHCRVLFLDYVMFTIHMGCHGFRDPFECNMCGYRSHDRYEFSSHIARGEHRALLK
IKZF3 Aiolos, sequence (Q96SW2 whole entry): as the sequence (Q96SW2 whole entry) above
IKZF3 Aiolos, sequence (Q16531 whole entry partner): as the sequence (Q16531 whole entry partner) above
Procedure: Cryopreserved healthy donor human peripheral blood mononuclear cells (PBMC) from healthy donors were thawed and seeded at 500,000 cells/well of 96-well round bottom plates in RPMI 1640 media (Gibco) supplemented with 10% FBS, Pen/Strep (Gibco), MEM-NEAA (Gibco), and sodium pyruvate (Gibco). Cells were treated with titrated doses of compound for 24 hours at 37° C., 5% CO2 before analyzing by flow cytometry.
For flow cytometry staining, cells were washed twice with flow cytometry staining buffer (Thermo Fisher) and incubated in Human Tru-stain Fc block (Biolegend) for 10 minutes before adding eFluor780 viability dye (Thermo Fisher) and surface marker antibody cocktail containing LD-eFluor780, CD3-BUV-395, CD4-BUV805, CD8-FITC, and CD25-BV605 for 30 minutes at 4° C. Cells were then fixed and permeabilized by incubation with permeabilization buffer (eBioscience FoxP3 buffer set 00-5523-00) for 30 minutes at 4° C. as per the kit manufacturer's instructions. Cells were washed twice with the Perm/Wash buffer supplied in the kit as per the manufacturer's instructions and incubated overnight at 4° C. with an intracellular antibody cocktail comprised of antibodies specific for the transcription factors (i.e., Foxp3-BV421, HELIOS-PE-Cy7, EOS-PE, IKAROS-PECF594, AIOLOS-AF647). Cells were washed twice with Perm/Wash buffer and resuspended in flow cytometry staining buffer (Thermo Fisher) prior to acquisition. Sample acquisition and analysis was performed using a BD LSRFortessa (BD Biosciences) flow cytometer. Single-stain controls for each fluorochrome were prepared using UltraComp eBead Compensation Beads (Thermo Fisher). Data were analyzed using FlowJo version 10 and GraphPad Prism Software.
Table D-1 lists the maximum observed degradation of the IKZF1 protein and IKZF3 protein as measured in the Human CD8^+ T Cell Reprogramming assay. The results in Table D-1 were rounded to two digits. In the Human CD8^+ T Cell Reprogramming assay, a value of 100% indicated no detectable protein remaining or complete degradation of the protein; and a value of 0% indicated no detectable degradation of the protein by the test compound.

[1] = human PBMC, CD8+ T cells, 24 hours, read-out: Maximum Observed Degradation IKZF3 Aiolos

Dmax (IKZF1 Ikaros)	Dmax (IKZF3 Aiolos; [1])	DC50 (IKZF3 Aiolos; human PBMC, CD8+ T cells, 24 hours, concentration reducing protein level by 50% vs DMSO)	Dmax (IKZF3 Aiolos; human, 24 h, Table D-1, read-out: decreased the level of IKZF3 (Aiolos))	Dmax (IKZF3 Aiolos; human, 24 h, Table E comparison, from Table D-1, read-out: IKZF3 Aiolos max % deg. observed)	Compound
19%	39%	–	–	–	O=C1CCC(N2Cc3c(ccc(-c4cc(CN5CC(c6ccccc6)C5)ccn4)c3F)C2=O)C(=O)N1 (stereo not drawn) [Comparative Compound A, 3-(4-fluoro-1-oxo-5-(4-((3-phenylazetidin-1-yl)methyl)pyridin-2-yl)isoindolin-2-yl) piperidine-2,6-dione]
37%	2%	–	–	–	Nc1nc(-c2ccc3c(c2)CN(C2CCC(=O)NC2=O)C3=O)ccc1CN1CC2(CCC2)C1 (stereo not drawn) [Comparative Compound B, 3-(5-(5-((2-azaspiro[3.3]heptan-2-yl)methyl)-6-aminopyridin-2-yl)-1-oxoisoindolin-2-yl) piperidine-2,6-dione]
49%	62 to 66%	23 to 35 nM	62 to 66%	62 to 66%	Nc1nc(-c2ccc3c(c2F)CN(C2CCC(=O)NC2=O)C3=O)ccc1CN1CC2(CCCOC2)C1 (stereo not drawn) [Example 1, 3-(5-(5-((6-oxa-2-azaspiro[3.5]nonan-2-yl)methyl)-6-aminopyridin-2-yl)-4-fluoro-1-oxoisoindolin-2-yl) piperidine-2,6-dione]
